Experimental data published in patent US20250064877A1, “COMPOSITION FOR INCREASING MUSCLE STRENGTH CONTAINING COMPLEX EXTRACT OF ANGELICA KEISKEI AND LEAVES OF MORUS ALBA L” (HAMSOA PHARMACEUTICAL CO., LTD., priority 2022, published 2025).

Test system: MuRF1
Assay: Expression of MuRF1 in dexamethasone-induced muscle atrophy rats
Format: in vivo, SD rats
Details: versus increase induced by dexamethasone; MIX 100 mg/kg, PC 320 mg/kg oral; FIG. 7
From the text: In the process of treating muscle atrophy, the effects of the composite (extracts) of leaves of mulberry and Angelica keiskei on the expression of MyoD (a factor involved in muscle production) and on the expression of MuRF1 (a factor related to muscle atrophy) were confirmed.

CC(C)(O)CC(=O)O [PC, 3-hydroxy-3-methylbutyric acid]
expression of MuRF1: tended to decrease
